Legend:
Assay type in all cases: in vivo
[1] = system: kennel ticks (Rhipicephalus sanguineus); assay: Effect test for kennel ticks; conditions: 10 µg/cm^2 thin film in glass container, protonymphs, two days, 25°C; for mortality at 10 µg/cm2: Rhipicephalus sanguineus, 48 h, read-out: death rate
Method: In 1 ml of acetone, 1 mg of the presently invented compound was dissolved to prepare a chemical solution having a concentration of 1000 ppm. The bottom surface and side surface of each glass container having an inner wall surface area of 25 cm^2 were coated with 250 µl of the chemical solution, and acetone was then volatilized to form a thin film of the compound on the inner wall of the glass container.
Into each of the treated glass containers, five kennel ticks (Rhipicephalus sanguineus) protonymphs (mixed-sex) were released, and the glass containers were capped and accommodated in a thermostatic room at 25°C.

[2] = system: cat fleas (Ctenocephalides felis); assay: whole plant or invertebrate; conditions: 72 h, read-out: death rate
In short: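 Glass containers (25 cm² inner surface) were coated with 250 µl of a 1000 ppm acetone solution, and the acetone was evaporated to leave a dry film. Five mixed-sex adult fleas were confined per container at 25°C. Mortality was scored after 3 days.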

[3] = system: diamondback moths (Plutella xylostella); assay: Insecticidal test for diamondback moths; conditions: Plutella xylostella, 144 h; 500 ppm chemical solution, leaves soaked, third-instar larvae, six days, 25°C; read-out: death rate
In short: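 Leaves dipped about 10 s in a 500 ppm aqueous dilution of an emulsion formulation with spreader, then air-dried. Five third-instar larvae released per dish and held at 25 °C. Tested in duplicate.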

[4] = system: green peach aphids (Myzus persicae); assay: Insecticidal test for green peach aphids; conditions: Myzus persicae, foliar, 144 h; 500 ppm chemical solution sprinkled (2.5 mg/cm^2), wingless imagoes on leaf disc, six days, 25°C; read-out: death rate
In short: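 Four wingless Myzus persicae adults on a 3 cm Chinese olive leaf disc over wet cotton, sprayed one day later with a 500 ppm dilution of a 10% emulsion plus spreader (2.5 mg/cm^2, rotary tower). Dishes were capped and held at 25°C. Run in duplicate.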

[5] = system: brown rice planthoppers (Nilaparvata lugens); assay: Insecticidal test for brown rice planthoppers; conditions: Nilaparvata lugens, 144 h; 500 ppm chemical solution, rice leaf sheaths soaked, third-instar larvae, six days, 25°C; read-out: death rate
In short: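 Rice leaf sheaths dipped ~10 s in 500 ppm compound solution (emulsion diluted in water with spreader), air-dried, then infested with five third-instar larvae per tube at 25 °C. Mortality scored after 6 days, death rate calculated, in duplicate.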

[6] = system: western flower thrips (Frankliniella occidentalis); assay: Insecticidal activity against western flower thrips; conditions: Frankliniella occidentalis, 48 h; 500 ppm chemical solution sprinkled (2.5 mg/cm^2), larvae on common bean leaf, after 2 days; read-out: death rate
In short: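 Bean leaf squares on wet filter paper inoculated with 20 larvae. Compound emulsion diluted with spreader-containing water to 500 ppm and sprayed at 2.5 mg/cm^2 by rotary tower. Run in duplicate.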

In the case of `O=C(Nc1ccc(F)cn1)C1=C(O)CC(c2nc(-c3ccc(O)nc3)no2)NC1=O` (stereo not shown) [3-101], the death rate [1] is reported as no less than 50%.

In the case of `O=C(Nc1ccc(F)cc1)C1=C(O)CC(c2ccc(C(F)(F)F)c(-c3cccc(F)c3)c2)NC1=O` (stereo not shown) [1-006], the mortality at 10 µg/cm2 [2] is reported as no less than 50%, the mortality at 10 µg/cm2 [1] is reported as no less than 50% and the mortality at 500 µg/mL [3] is reported as no less than 90%. The mortality at 500 µg/mL [4] was no less than 90%.

`O=C(Nc1ccccn1)C1=C(O)CC(c2nc(-c3ccccc3F)no2)NC1=O` (stereo not shown) [3-186] was tested, and the mortality at 10 µg/cm2 [2] was no less than 50%, the mortality at 10 µg/cm2 [1] was no less than 50% and the mortality at 500 µg/mL [3] was no less than 90%. For the same compound, the mortality at 500 µg/mL [5] was no less than 90% and the mortality at 500 µg/mL [6] was no less than 90%.

`O=C(Nc1c(F)cccc1F)C1=C(O)CC(c2nc(-c3ccncc3F)no2)NC1=O` (stereo not shown) [3-166] was tested, and the mortality at 10 µg/cm2 [2] was no less than 50%, the mortality at 10 µg/cm2 [1] was no less than 50% and the mortality at 500 µg/mL [3] was no less than 90%. The mortality at 500 µg/mL [5] was no less than 90% and the mortality at 500 µg/mL [4] was no less than 90%.

`O=C(Nc1ccc(F)cc1)C1=C(O)CC(c2ccc(C(F)(F)F)c(-c3ccc(F)cc3)c2)NC1=O` (stereo not shown) [1-007] gave a mortality at 10 µg/cm2 [2] of no less than 50%, a mortality at 10 µg/cm2 [1] of no less than 50% and a mortality at 500 µg/mL [3] of no less than 90%. For the same compound, the mortality at 500 µg/mL [6] was no less than 90% and the mortality at 500 µg/mL [4] was no less than 90%.

Compound `O=C(Nc1ccc(F)cc1)C1=C(O)CC(c2ccc(C(F)(F)F)c(-c3ccc(F)nc3)c2)NC1=O` (stereo not shown) [1-001, N-(4-fluorophenyl)-6-[3-(6-fluoropyridin-3-yl)-4-(trifluoromethyl)phenyl]-4-hydroxy-2-oxo-1,2,5,6-tetrahydropyridine-3-carboxamide] has a mortality at 10 µg/cm2 [2] of no less than 50%, a mortality at 500 µg/mL [3] of no less than 90% and a mortality at 500 µg/mL [5] of no less than 90%. It also gave a mortality at 500 µg/mL [6] of no less than 90% and a mortality at 500 µg/mL [4] of no less than 90%.

From patent EP4582413A1, “ARYLTETRAHYDROPYRIDINE COMPOUND AND PEST CONTROL AGENT” (priority 2022, dated 2024)
